In series [1] the test system is Mycosphaerella graminicola; Anamorph: Septoria tritici. The series is described as follows: Leaf Blotch of Wheat fungicidal activity (SEPTTR). Type of series: in vivo. As to conditions: Zymoseptoria tritici; for pest or weed control at 100 ppm: rate 100 ppm; for pest or weed control at 121.5 g/ha: rate 121.5 g/H. In a few lines: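 Acetone solutions diluted with nine volumes of water containing 110 ppm Triton X-100, sprayed to run-off on first-leaf wheat seedlings (Yuma), inoculated with S. tritici before or after treatment. Plants held in dew chambers, then in a 20 °C greenhouse. Disease severity (0–100%) scored when untreated plants fully symptomatic; % control relative to untreated.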

For the next series, the system named is Puccinia triticina. The series can be described thus: Wheat Brown Rust fungicidal activity (PUCCRT). The format is in vivo. The note with it: Puccinia triticina; for pest or weed control at 100 ppm: rate 100 ppm; for pest or weed control at 121.5 g/ha: rate 121.5 g/H. Put shortly: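 Yuma wheat seedlings at first-leaf stage sprayed to run-off (acetone solution in water with 110 ppm Triton X-100) or track-sprayed as EC with 0.1% Trycol 5941; inoculated with P. triticina spores before or after treatment. Overnight dark dew at 22° C., then greenhouse 24° C.; disease severity 0–100% gives percent control vs untreated.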

The subject of another series is Phakopsora pachyrhizi. The series is described as follows: Asian Soybean Rust fungicidal activity (PHAKPA). Type of series: in vivo. The note with it: 25 ppm; for Disease Control PHAKPA 1DP: 1 Day Protectant; for Disease Control PHAKPA 3DC: 3 Day Curative. On the procedure:
Evaluation of Fungicidal Activity: Asian Soybean Rust (Phakopsora pachyrhizi; Bayer Code PHAKPA)
Technical grades of materials were dissolved in acetone, which were then mixed with nine volumes of water containing 0.011% Tween 20. The fungicide solutions were applied onto soybean seedlings using an automated booth sprayer to run-off. All sprayed plants were allowed to air dry prior to further handling.
Soybean plants (variety Williams 82) were grown in soil-less Metro mix, with one plant per pot. Two weeks old seedlings were used for testing. Plants were inoculated either 3 days prior to or 1 day after fungicide treatments. Plants were incubated for 24 h in a dark dew room at 22° C. and 100% RH then transferred to a growth room at 23° C. for disease to develop. Disease severity was assessed on the sprayed leaves.

Where [2] appears, read: 24 h, 1 Day Protectant, read-out: Disease control SEPTTR 1DP.
Where [3] appears, read: 72 h, 3 Day Curative, read-out: Disease control SEPTTR 3DC.
Setting [4] is: 24 h, 1 Day Protectant, read-out: Disease control PUCCRT 1DP.
[5] abbreviates: 72 h, 3 Day Curative, read-out: Disease control PUCCRT 3DC.

This is an account of results in patent US9179674B2, “Macrocyclic picolinamide compounds with fungicidal activity” (DOW AGROSCIENCES LLC, priority 2013, dated 2015).

Structures are written as SMILES. Like-named read-outs stand apart in the source and are kept apart here.

`COc1ccnc(C(=O)N[C@H]2COC[C@H](CCc3ccccc3)[C@@H](OC3CCCC3)[C@H](C)OC2=O)c1OCOC(C)=O` [Compound F81] gave a melting point of 45 to 50 °C. For the same compound, the pest or weed control at 100 ppm in series [1] (setting [2]) is 80 to 100%. Also, in series [1] (setting [3]), the pest or weed control at 100 ppm lay in the range of 80 to 100%. In addition, the pest or weed control at 100 ppm in the series on Puccinia triticina (setting [4]) was 80 to 100%. Also, in the series on Puccinia triticina (setting [5]), the pest or weed control at 100 ppm lay within 80 to 100%.

As for `COc1ccnc(C(=O)N[C@H]2COC[C@H](Cc3cccc4ccccc34)[C@@H](OCCCC(F)(F)F)[C@H](C)OC2=O)c1OCOC(C)=O` [Compound F84], the melting point lay in the range of 61 to 68 °C. Further, in series [1] (setting [2]), the pest or weed control at 100 ppm was in the range of 80 to 100%. The pest or weed control at 100 ppm in the series on Puccinia triticina (setting [4]) lay in the range of 80 to 100%. Moreover, the pest or weed control at 100 ppm in the series on Puccinia triticina (setting [5]) lay within 80 to 100%.

The compound `COc1ccnc(C(=O)N[C@H]2COC[C@H](Cc3cccc4ccccc34)[C@@H](Oc3ccc(C)cc3)[C@H](C)OC2=O)c1OCOC(C)=O` [Compound F85] registered a melting point of 83 to 88 °C. In addition, in series [1] (setting [2]), the pest or weed control at 100 ppm was 80 to 100%. Moreover, in series [1] (setting [3]), the pest or weed control at 100 ppm fell in the range of 0 to 80%. The pest or weed control at 100 ppm in the series on Puccinia triticina (setting [4]) was 80 to 100%. Further, in the series on Puccinia triticina (setting [5]), the pest or weed control at 100 ppm fell in the range of 0 to 80%.

Compound `CCCCCO[C@@H]1[C@@H](Cc2ccc(C)cc2)COC[C@H](NC(=O)c2nccc(OC)c2OCOC(C)=O)C(=O)O[C@H]1C` [Compound F88] gave a melting point of 39 to 43 °C. For the same compound, the pest or weed control at 100 ppm in series [1] (setting [2]) was 80 to 100%. Further, in series [1] (setting [3]), the pest or weed control at 100 ppm fell in the range of 80 to 100%. For the same compound, the pest or weed control at 100 ppm in the series on Puccinia triticina (setting [4]) was in the range of 80 to 100%. Besides, the pest or weed control at 100 ppm in the series on Puccinia triticina (setting [5]) is 80 to 100%.

`COc1ccnc(C(=O)N[C@H]2COC[C@H](Cc3ccc(C)cc3)[C@@H](OC(=O)C(C)C)[C@H](C)OC2=O)c1OCOC(C)=O` [Compound F89] registered a melting point of 43 to 47 °C. In addition, the pest or weed control at 100 ppm in series [1] (setting [2]) was in the range of 80 to 100%. Also, the pest or weed control at 100 ppm in series [1] (setting [3]) lay within 80 to 100%. Further, in the series on Puccinia triticina (setting [4]), the pest or weed control at 100 ppm lay within 80 to 100%. The pest or weed control at 100 ppm with Puccinia triticina (setting [5]) was in the range of 80 to 100%.

`COc1ccnc(C(=O)N[C@H]2COC[C@H](Cc3ccc(F)cc3)[C@@H](OC(=O)C3CC3)[C@H](C)OC2=O)c1OCOC(C)=O` [Compound F90] showed a melting point of 59 to 64 °C. Moreover, the pest or weed control at 100 ppm in series [1] (setting [2]) lay within 80 to 100%. The pest or weed control at 100 ppm in series [1] (setting [3]) is 80 to 100%. Also, the pest or weed control at 100 ppm in the series with Puccinia triticina (setting [4]) was 80 to 100%. In addition, the pest or weed control at 100 ppm in the series on Puccinia triticina (setting [5]) lay in the range of 80 to 100%.

Turning to `COc1ccnc(C(=O)N[C@H]2COC[C@H](Cc3ccc(F)cc3)[C@@H](OC(=O)C(C)C)[C@H](C)OC2=O)c1OCOC(C)=O` [Compound F91], the melting point lay in the range of 52 to 56 °C. Also, in series [1] (setting [2]), the pest or weed control at 100 ppm was in the range of 80 to 100%. Besides, the pest or weed control at 100 ppm in series [1] (setting [3]) was 80 to 100%. The pest or weed control at 100 ppm with Puccinia triticina (setting [4]) is 80 to 100%. Further, in the series on Puccinia triticina (setting [5]), the pest or weed control at 100 ppm lay within 80 to 100%.

On to `COc1ccnc(C(=O)N[C@H]2COC[C@H](CCC(C)C)[C@@H](OCC(C)C)[C@H](C)OC2=O)c1OCOC(C)=O` [Compound F106], for which the pest or weed control at 100 ppm (in series [1] (setting [2]); in series [1] (setting [3]); with Puccinia triticina (setting [4]); in the series on Puccinia triticina (setting [5])) was 80 to 100% throughout. For the same compound, the pest or weed control at 121.5 g/ha (in series [1] (setting [2]); in series [1] (setting [3]); with Puccinia triticina (setting [4]); in the series with Puccinia triticina (setting [5])) was 80 to 100% throughout. Moreover, in the series on Phakopsora pachyrhizi, the “Disease Control PHAKPA 1DP” value is recorded as “A (80-100)”. Besides, the “Disease Control PHAKPA 3DC” value in the series with Phakopsora pachyrhizi is on record as “A (80-100)”.

Turning to `COc1ccnc(C(=O)N[C@H]2COC[C@H](Cc3cc(F)c(F)c(F)c3)[C@@H](OCC(C)C)[C@H](C)OC2=O)c1OCOC(C)=O` [Compound F109], the pest or weed control at 100 ppm (in series [1] (setting [2]); in series [1] (setting [3]); in the series with Puccinia triticina (setting [4]); in the series with Puccinia triticina (setting [5])) was 80 to 100% in each case. Also, the pest or weed control at 121.5 g/ha (in series [1] (setting [2]); in series [1] (setting [3]); in the series on Puccinia triticina (setting [4]); in the series with Puccinia triticina (setting [5])) was 80 to 100% throughout. Further, the “Disease Control PHAKPA 1DP” value with Phakopsora pachyrhizi is reported as “A (80-100)”. Besides, the “Disease Control PHAKPA 3DC” value in the series with Phakopsora pachyrhizi was “B (More than 0-Less than 80)”.

For the compound `COc1ccnc(C(=O)N[C@H]2COC[C@H](Cc3ccc(Cl)cc3Cl)[C@@H](OCC(C)C)[C@H](C)OC2=O)c1OCOC(C)=O` [Compound F111], the melting point was 49 to 53 °C. Further, the pest or weed control at 100 ppm in series [1] (setting [2]) lay within 80 to 100%. Besides, the pest or weed control at 100 ppm in series [1] (setting [3]) was 80 to 100%. The pest or weed control at 100 ppm with Puccinia triticina (setting [4]) lay in the range of 80 to 100%. In addition, in the series with Puccinia triticina (setting [5]), the pest or weed control at 100 ppm is 80 to 100%.

As for `CCCCCO[C@@H]1[C@@H](Cc2ccc(Cl)cc2Cl)COC[C@H](NC(=O)c2nccc(OC)c2OCOC(C)=O)C(=O)O[C@H]1C` [Compound F112], the melting point lay within 53 to 57 °C. For the same compound, in series [1] (setting [2]), the pest or weed control at 121.5 g/ha fell in the range of 80 to 100%. Further, the pest or weed control at 121.5 g/ha in series [1] (setting [3]) was in the range of 80 to 100%. Further, the pest or weed control at 121.5 g/ha with Puccinia triticina (setting [4]) was in the range of 80 to 100%. For the same compound, the pest or weed control at 121.5 g/ha in the series with Puccinia triticina (setting [5]) lay in the range of 0 to 80%.

The compound `COc1ccnc(C(=O)N[C@H]2COC[C@H](Cc3ccc(Cl)cc3Cl)[C@@H](OC(=O)C(C)C)[C@H](C)OC2=O)c1OCOC(=O)C(C)C` [Compound F119] displayed a melting point of 57 to 60 °C. Also, the pest or weed control at 100 ppm in series [1] (setting [2]) was 80 to 100%. For the same compound, in series [1] (setting [3]), the pest or weed control at 100 ppm was in the range of 80 to 100%. Moreover, in the series on Puccinia triticina (setting [4]), the pest or weed control at 100 ppm lay in the range of 80 to 100%. The pest or weed control at 100 ppm with Puccinia triticina (setting [5]) fell in the range of 80 to 100%.

What is called melting point is the temperature of the solid-liquid transition.
